In US10517964B2, “Optical imaging probes, optical imaging systems, methods of optical imaging, and methods of using optical imaging probes” (priority 2011, dated 2019):

Legend:
[1] = tested on: C6 glioma tumor; assay: Cerenkov luminescence imaging with 6 mm fiber optic bundle in mice bearing C6 glioma; type: in vivo; settings: n=4
Text: Typical optical endoscopy imaging system includes an endoscope (usually made out of optical fibers and/or optical lenses such as grin/rod lenses), a white light source, and a CCD camera that is connected to the computer monitor. […] The subject “S” was placed […] the field of view (FOV) of the imaging system. The input end of the OF was placed close to the subject “S”. The output end of the “OF” faced the CCD camera such that the image transmitted by the output end was imaged on to the CCD camera using a relay lens system. The optical signal was normalized to photons per second per centimeter square per steradian (p/s/cm^2/sr). Identical settings were used for both in vitro and living mouse experiments.
^18F-FDG was produced by the Radiochemistry Facility at Stanford University using standard procedures. […] A CRC-15R PET dose calibrator (Capintec Inc., Ramseb, N.J.) was used for all radioactivity measurements. […]
To further characterize the distribution of ^18F-FDG, tumors and other organs were removed from the sacrificed mice (n=4) and subjected to fiber optic imaging as mentioned above. Inset figure on top right corner of each organ in FIG. 3.6(a) represents average Cerenkov radiance detected by a 6 mm fiber optic bundle. FIG. 3.6(b) represents biodistribution of ^18F-FDG in various tissues at one hour post injection in mice as measured using optical signals from radionuclides. […]

[2] = tested on: C6-fluc tumors; assay: in vivo radioactive OI and microPET of mice bearing C6-fluc glioma
Procedure: [^18F]FDG has been widely used for imaging tumor metabolism^2,13,14, and Na^18F can accumulate in the bone^14. In this study, a group of mice (n=3) were implanted with firefly luciferase (fluc) transfected rat C6 glioma (C6-fluc). A day prior to the radioactive imaging, the mice were given with luciferin and bioluminescence OI was performed to verify the presence of tumor (FIG. 1.3a). Then [^18F]FDG was injected to the mice bearing C6-fluc glioma and imaged sequentially with IVIS Spectrum (FIG. 1.3b) and microPET (FIG. 1.3c). […] High imaging signals from bladder and brain were also observed by both modalities. But heart was hardly visible in the radioactive OI because it localizes deep inside of the mice body. After we sacrificed and open the thorax of the mice, the heart could be easily identified (FIG. 1.3d, yellow arrow). To further characterize the distribution of [^18F]FDG using radioactive OI, tumors and other normal organs and tissues were removed from the mice sacrificed and subjected to IVIS Spectrum imaging.
Quantitative analysis of both radioactive OI and microPET images was performed. The OI intensities in the tumor and the normal tissue as a function of time for [^18F]FDG was depicted in FIG. 1.3f, while the radioactivity accumulation in tumor and muscle over time was shown in FIG. 1.3g. […] Finally, regression analysis was performed for the tumor uptakes obtained from two imaging modalities, in order to further evaluate the quantitative analysis data obtained from radioactive OI. Good correlation was seen between the radioactive OI signal intensities and microPET images derived tumor uptakes (FIG. 1.3h, r^2 over 0.90 for the analyses). […]
Radioactive optical imaging: In vivo radioactive OI was also performed with an IVIS Spectrum system. […] Images were acquired and analyzed using Living Image 3.0 software (Caliper life sciences, Hopkinton, Mass.). Quantification of Radioactive OI images was corrected in accordance with radionuclides' respective physical decay properties. […]

[3] = tested on: primary bladder tumor; settings: primary bladder tumor in humans; cited from earlier work

Substance: 2-deoxy-2-[^18F]fluoro-D-glucose [[^18F]FDG]
- in vivo tracer uptake by fiber bundle signal ([1]; 900 μCi i.v., 90 minutes post-injection): Relatively high signals from the subcutaneous tumor and brain
- ex vivo tissue distribution by fiber bundle signal ([1]; one hour post injection): High signal was mainly observed from the tumor, heart, brain, and kidney tissue samples
- tumor uptake over time ([2]; from 0.5-2 h): increased over time
- tumor localization ([2]; radioactive OI and microPET, 0.5-2 h p.i.): preferentially localized and was retained in C6-fluc tumors
- ex vivo distribution in tumors and normal organs ([2]; radioactive OI of removed tissues, 2.1 h p.i.): High activity was mainly observed from the tumor and heart tissue samples
- standard uptake value (SUV) [3]: ~4.5
